The target of one data set is Cytochrome P450 2E1 (Homo sapiens, UniProt P05181). Note: in other assays of this panel Not Active means under 50% inhibition at 10 µM.
Chain of Cytochrome P450 2E1 (P05181 whole entry): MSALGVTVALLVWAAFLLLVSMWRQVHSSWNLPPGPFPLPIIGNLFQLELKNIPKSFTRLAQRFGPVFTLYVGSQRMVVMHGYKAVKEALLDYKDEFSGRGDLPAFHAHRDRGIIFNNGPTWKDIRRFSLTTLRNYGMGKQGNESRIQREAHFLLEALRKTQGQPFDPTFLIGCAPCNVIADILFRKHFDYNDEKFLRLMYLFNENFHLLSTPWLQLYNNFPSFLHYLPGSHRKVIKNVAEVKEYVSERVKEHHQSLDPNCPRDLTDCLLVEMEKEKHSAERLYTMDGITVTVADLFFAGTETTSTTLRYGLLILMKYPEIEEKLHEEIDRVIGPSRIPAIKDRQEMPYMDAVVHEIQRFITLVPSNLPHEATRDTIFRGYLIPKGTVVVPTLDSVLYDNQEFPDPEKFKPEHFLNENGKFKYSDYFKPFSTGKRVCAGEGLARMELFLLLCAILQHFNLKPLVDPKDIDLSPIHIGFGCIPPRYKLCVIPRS
Assay: not given
Particulars: bti-tn-5b1-4.
Chain of Tyrosine-protein kinase Lck (P06239 whole entry): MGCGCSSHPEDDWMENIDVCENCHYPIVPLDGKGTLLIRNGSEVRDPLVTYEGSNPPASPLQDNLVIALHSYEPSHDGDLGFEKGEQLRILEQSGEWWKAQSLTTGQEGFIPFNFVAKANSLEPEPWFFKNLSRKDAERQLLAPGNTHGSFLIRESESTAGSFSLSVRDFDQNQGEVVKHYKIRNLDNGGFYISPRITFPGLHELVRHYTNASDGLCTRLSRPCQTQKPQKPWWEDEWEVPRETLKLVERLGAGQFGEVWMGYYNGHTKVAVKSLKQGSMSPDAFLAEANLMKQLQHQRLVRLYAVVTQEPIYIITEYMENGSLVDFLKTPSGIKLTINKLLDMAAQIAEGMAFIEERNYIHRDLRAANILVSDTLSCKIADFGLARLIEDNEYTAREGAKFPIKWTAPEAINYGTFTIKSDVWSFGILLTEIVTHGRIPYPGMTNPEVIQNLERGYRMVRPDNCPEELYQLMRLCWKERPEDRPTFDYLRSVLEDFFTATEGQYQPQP
Consider `COc1ccccc1OCC(O)COC(N)=O` (stereo not drawn) [METHOCARBAMOL], for which the IC50 entry is “Not Active” and the Ki result was “Not Active”.
As for `CN(Cc1cnc2nc(N)nc(N)c2n1)c1ccc(C(=O)N[C@@H](CCC(=O)O)C(=O)O)cc1` [METHOTREXATE], the IC50 entry was “Not Active” and the Ki entry is given as “Not Active”.
On to `COC(=O)c1ccccc1O` [METHYL SALICYLATE], for which the IC50 result is on record as “Not Active” and the Ki entry is “Not Active”.
With `COc1ccc2cc(CCC(C)=O)ccc2c1` [NABUMETONE], the IC50 result is given as “Not Active” and the Ki entry is listed as “Not Active”.
As to `O=C(O)c1cccnc1` [NIACIN], the IC50 result was “Not Active” and the Ki result is given as “Not Active”.
Consider `CNC(=C[N+](=O)[O-])NCCSCc1csc(CN(C)C)n1` [NIZATIDINE], for which the IC50 entry is given as “Not Active” and the Ki result is given as “Not Active”.
`C[C@]12C/C(=C/O)C(=O)C[C@@H]1CC[C@@H]1[C@@H]2CC[C@@]2(C)[C@H]1CC[C@]2(C)O` [OXYMETHOLONE]: the IC50 entry is on record as “Not Active” and the Ki result is given as “Not Active”.
Turning to `CC(C)(CO)C(O)C(=O)NCCCO` (stereo not drawn) [PANTHENOL], the IC50 entry is listed as “Not Active” and the Ki entry was “Not Active”.

A further data set deals with Tyrosine-protein kinase Fyn (Homo sapiens, UniProt P06241). Put plainly: biochemical. Format: cell-based, Insect cells. Particulars: insect cells.
Chain of Tyrosine-protein kinase Fyn (P06241 whole entry): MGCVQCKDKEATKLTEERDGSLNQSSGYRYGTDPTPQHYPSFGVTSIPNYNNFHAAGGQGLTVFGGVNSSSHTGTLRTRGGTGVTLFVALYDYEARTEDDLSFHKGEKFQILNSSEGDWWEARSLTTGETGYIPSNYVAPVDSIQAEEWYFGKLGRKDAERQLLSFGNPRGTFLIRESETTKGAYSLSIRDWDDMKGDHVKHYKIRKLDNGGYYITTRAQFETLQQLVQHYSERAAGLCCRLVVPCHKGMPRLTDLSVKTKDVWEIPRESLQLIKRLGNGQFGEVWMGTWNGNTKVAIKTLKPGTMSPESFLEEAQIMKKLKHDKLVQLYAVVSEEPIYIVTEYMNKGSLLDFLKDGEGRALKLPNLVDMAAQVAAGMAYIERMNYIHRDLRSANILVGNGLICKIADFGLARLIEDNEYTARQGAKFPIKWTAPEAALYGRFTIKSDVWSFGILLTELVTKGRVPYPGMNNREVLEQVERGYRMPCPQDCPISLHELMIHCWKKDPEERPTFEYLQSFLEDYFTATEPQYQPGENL
On to `COc1ccccc1OCC(O)COC(N)=O` (stereo not drawn) [METHOCARBAMOL], for which the IC50 result is on record as “Not Active”.
Same read-out and setting: the same measure for `CN(Cc1cnc2nc(N)nc(N)c2n1)c1ccc(C(=O)N[C@@H](CCC(=O)O)C(=O)O)cc1` [METHOTREXATE]: “Not Active”; for `COC(=O)c1ccccc1O` [METHYL SALICYLATE]: “Not Active”; for `COc1ccc2cc(CCC(C)=O)ccc2c1` [NABUMETONE]: “Not Active”.
The same measure, in the same setting: for `O=C(O)c1cccnc1` [NIACIN] the value was “Not Active”; for `CNC(=C[N+](=O)[O-])NCCSCc1csc(CN(C)C)n1` [NIZATIDINE], “Not Active”; for `C[C@]12C/C(=C/O)C(=O)C[C@@H]1CC[C@@H]1[C@@H]2CC[C@@]2(C)[C@H]1CC[C@]2(C)O` [OXYMETHOLONE], “Not Active”.
Same read-out and setting: for `CC(C)(CO)C(O)C(=O)NCCCO` (stereo not drawn) [PANTHENOL] the value was “Not Active”.

System in another data set: not listed separately
Put plainly: DRUGMATRIX: Nicotinic Acetylcholine radioligand binding (ligand: [125I] Epibatidine). Format: cell membranes, Membrane. Particulars: imr-32; Not Active = under 50% inhibition at 10 µM.
For `COc1ccccc1OCC(O)COC(N)=O` (stereo not drawn) [METHOCARBAMOL], the IC50 entry is “Not Active” and the Ki entry is listed as “Not Active”.
Take `CN(Cc1cnc2nc(N)nc(N)c2n1)c1ccc(C(=O)N[C@@H](CCC(=O)O)C(=O)O)cc1` [METHOTREXATE]: the IC50 entry was “Not Active” and the Ki entry was “Not Active”.
`COC(=O)c1ccccc1O` [METHYL SALICYLATE]: the IC50 result is reported as “Not Active” and the Ki entry was “Not Active”.
For `COc1ccc2cc(CCC(C)=O)ccc2c1` [NABUMETONE], the IC50 result was “Not Active” and the Ki entry is reported as “Not Active”.
For the compound `O=C(O)c1cccnc1` [NIACIN], the IC50 entry is reported as “Not Active” and the Ki result is reported as “Not Active”.
As for `CNC(=C[N+](=O)[O-])NCCSCc1csc(CN(C)C)n1` [NIZATIDINE], the IC50 result is on record as “Not Active” and the Ki result is recorded as “Not Active”.
Take `C[C@]12C/C(=C/O)C(=O)C[C@@H]1CC[C@@H]1[C@@H]2CC[C@@]2(C)[C@H]1CC[C@]2(C)O` [OXYMETHOLONE]: the IC50 entry is given as “Not Active” and the Ki result is on record as “Not Active”.
Consider `CC(C)(CO)C(O)C(=O)NCCCO` (stereo not drawn) [PANTHENOL], for which the IC50 entry was “Not Active” and the Ki result is on record as “Not Active”.

The next data set has as its target Tyrosine-protein kinase Lck (Homo sapiens, UniProt P06239). Put plainly: DRUGMATRIX: Protein Tyrosine Kinase, LCK enzyme inhibition (substrate: Poly(Glu:Tyr)). The data set is classed as cell-based, Insect cells. Particulars: insect cells; Not Active = under 50% inhibition at 10 µM.
For `COc1ccccc1OCC(O)COC(N)=O` (stereo not drawn) [METHOCARBAMOL], the IC50 result is on record as “Not Active”.
Consider `CN(Cc1cnc2nc(N)nc(N)c2n1)c1ccc(C(=O)N[C@@H](CCC(=O)O)C(=O)O)cc1` [METHOTREXATE], for which the IC50 result is “Not Active”.
Turning to `COC(=O)c1ccccc1O` [METHYL SALICYLATE], the IC50 result was “Not Active”.
For the compound `COc1ccc2cc(CCC(C)=O)ccc2c1` [NABUMETONE], the IC50 entry is “Not Active”.
On to `O=C(O)c1cccnc1` [NIACIN], for which the IC50 entry is recorded as “Not Active”.
For `CNC(=C[N+](=O)[O-])NCCSCc1csc(CN(C)C)n1` [NIZATIDINE], the IC50 entry is given as “Not Active”.
On the same count and under the same terms, the same measure for `C[C@]12C/C(=C/O)C(=O)C[C@@H]1CC[C@@H]1[C@@H]2CC[C@@]2(C)[C@H]1CC[C@]2(C)O` [OXYMETHOLONE]: “Not Active”; for `CC(C)(CO)C(O)C(=O)NCCCO` (stereo not drawn) [PANTHENOL]: “Not Active”.

System in the next data set: not listed separately
Put plainly: DRUGMATRIX: Phosphodiesterase PDE3 enzyme inhibition (substrate: [3H]cAMP + cAMP). Format: tissue-based, Homo sapiens. Particulars: platelet; Not Active = under 50% inhibition at 10 µM.
As for `COc1ccccc1OCC(O)COC(N)=O` (stereo not drawn) [METHOCARBAMOL], the IC50 entry is given as “Not Active” and the Ki entry is listed as “Not Active”.
For `CN(Cc1cnc2nc(N)nc(N)c2n1)c1ccc(C(=O)N[C@@H](CCC(=O)O)C(=O)O)cc1` [METHOTREXATE], the IC50 result is recorded as “Not Active” and the Ki result is recorded as “Not Active”.
Regarding `COC(=O)c1ccccc1O` [METHYL SALICYLATE], the IC50 result is listed as “Not Active” and the Ki result is recorded as “Not Active”.
Consider `COc1ccc2cc(CCC(C)=O)ccc2c1` [NABUMETONE], for which the IC50 result is recorded as “Not Active” and the Ki result is given as “Not Active”.
Consider `O=C(O)c1cccnc1` [NIACIN], for which the IC50 entry is on record as “Not Active” and the Ki entry was “Not Active”.
As for `CNC(=C[N+](=O)[O-])NCCSCc1csc(CN(C)C)n1` [NIZATIDINE], the IC50 result is listed as “Not Active” and the Ki entry was “Not Active”.
Consider `C[C@]12C/C(=C/O)C(=O)C[C@@H]1CC[C@@H]1[C@@H]2CC[C@@]2(C)[C@H]1CC[C@]2(C)O` [OXYMETHOLONE], for which the IC50 result is given as “Not Active” and the Ki result is on record as “Not Active”.
Turning to `CC(C)(CO)C(O)C(=O)NCCCO` (stereo not drawn) [PANTHENOL], the IC50 result is listed as “Not Active” and the Ki entry was “Not Active”.

In the next data set the target is T1, B2 bradykinin receptor (Homo sapiens, UniProt P30411). Note: in other assays of this panel Not Active means under 50% inhibition at 10 µM.
T1 sequence (P30411 whole entry): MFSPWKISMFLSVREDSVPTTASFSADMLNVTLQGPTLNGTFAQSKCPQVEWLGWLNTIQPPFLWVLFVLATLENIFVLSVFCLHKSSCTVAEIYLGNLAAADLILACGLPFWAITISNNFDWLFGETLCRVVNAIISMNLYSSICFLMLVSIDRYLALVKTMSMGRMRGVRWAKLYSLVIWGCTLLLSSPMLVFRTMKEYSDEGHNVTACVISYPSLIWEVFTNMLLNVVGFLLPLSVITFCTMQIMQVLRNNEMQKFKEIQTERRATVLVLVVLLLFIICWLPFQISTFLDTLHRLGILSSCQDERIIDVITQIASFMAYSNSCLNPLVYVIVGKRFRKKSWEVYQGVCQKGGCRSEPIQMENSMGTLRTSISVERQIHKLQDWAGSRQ
Assay: not given
Format: cell membranes, Membrane. Particulars: chem-1.
With `COc1ccccc1OCC(O)COC(N)=O` (stereo not drawn) [METHOCARBAMOL], the IC50 result is reported as “Not Active”.
As for `CN(Cc1cnc2nc(N)nc(N)c2n1)c1ccc(C(=O)N[C@@H](CCC(=O)O)C(=O)O)cc1` [METHOTREXATE], the IC50 result is listed as “Not Active”.
As for `COC(=O)c1ccccc1O` [METHYL SALICYLATE], the IC50 entry is “Not Active”.
Still for that read-out and setting: the same measure for `COc1ccc2cc(CCC(C)=O)ccc2c1` [NABUMETONE]: “Not Active”; for `O=C(O)c1cccnc1` [NIACIN]: “Not Active”.
As to `CNC(=C[N+](=O)[O-])NCCSCc1csc(CN(C)C)n1` [NIZATIDINE], the IC50 entry was “Not Active”.
For `C[C@]12C/C(=C/O)C(=O)C[C@@H]1CC[C@@H]1[C@@H]2CC[C@@]2(C)[C@H]1CC[C@]2(C)O` [OXYMETHOLONE], the IC50 result is “Not Active”.
On the same count and under the same terms, for `CC(C)(CO)C(O)C(=O)NCCCO` (stereo not drawn) [PANTHENOL] the value was “Not Active”.

System in the next data set: not listed separately
Put plainly: DRUGMATRIX: Tumor Necrosis Factor (TNF), Non-Selective radioligand binding (ligand: [125I] TNF-alpha). The data set is classed as cell membranes, Membrane. Particulars: u-937; Not Active = under 50% inhibition at 10 µM.
With `COc1ccccc1OCC(O)COC(N)=O` (stereo not drawn) [METHOCARBAMOL], the IC50 entry was “Not Active” and the Ki entry is given as “Not Active”.
As to `CN(Cc1cnc2nc(N)nc(N)c2n1)c1ccc(C(=O)N[C@@H](CCC(=O)O)C(=O)O)cc1` [METHOTREXATE], the IC50 entry is “Not Active” and the Ki result is “Not Active”.
For the compound `COC(=O)c1ccccc1O` [METHYL SALICYLATE], the IC50 result is “Not Active” and the Ki result is recorded as “Not Active”.
On to `COc1ccc2cc(CCC(C)=O)ccc2c1` [NABUMETONE], for which the IC50 entry is on record as “Not Active” and the Ki entry is recorded as “Not Active”.
In the case of `O=C(O)c1cccnc1` [NIACIN], the IC50 result is “Not Active” and the Ki entry is listed as “Not Active”.
For `CNC(=C[N+](=O)[O-])NCCSCc1csc(CN(C)C)n1` [NIZATIDINE], the IC50 entry is “Not Active” and the Ki result is on record as “Not Active”.
Turning to `C[C@]12C/C(=C/O)C(=O)C[C@@H]1CC[C@@H]1[C@@H]2CC[C@@]2(C)[C@H]1CC[C@]2(C)O` [OXYMETHOLONE], the IC50 entry is given as “Not Active” and the Ki entry is “Not Active”.
`CC(C)(CO)C(O)C(=O)NCCCO` (stereo not drawn) [PANTHENOL]: the IC50 result was “Not Active” and the Ki result is on record as “Not Active”.

Source of the values: ChEMBL document CHEMBL1909046, “DrugMatrix in vitro pharmacology data”.
